This is an account of results in patent US10160744B2, “Quinoline compounds suitable for treating disorders that respond to the modulation of the serotonin 5-HT6 receptor” (Abbvie Deutschland GmbH & Co. KG, priority 2016, dated 2018).

Structures can show the parent of a compound that is named as a salt. Some results are limits rather than exact numbers.

A short description of data set [1]: Metabolic stability in human liver microsomes (microsomal clearance). It is filed as in vitro ADME. The settings on record: pH 7.4; human liver microsomes 0.25 mg protein/mL, 0.5 μM compound, NADPH, 37° C.; read-out: mClint. On the procedure: Samples of the tested compounds (0.5 μM) were preincubated together with human liver microsomes (0.25 mg of microsomal protein/mL) in 0.05 M potassium phosphate buffer of pH 7.4 in microtiter plates at 37° C. for 5 minutes. The reaction was started by adding NADPH (1.0 mM). After 0, 5, 10, 15, 20 and 30 minutes, an aliquot was removed, the reaction was cooled and stopped by adding twice the amount of quench solution consisting of acetonitrile/methanol 1:1, and containing 0.2 μM carbutamide as internal standard. The samples were frozen until analyzed. The remaining concentration of undegraded test substance was determined by liquid chromatography-tandem mass spectrometry (LC-MS/MS). The half-life (t1/2) was determined from the gradient of the ratio of the signal of (test substance/internal standard)/unit time plot, allowing the calculation of the half-life of the test substance, assuming first order kinetics, from the decrease in the concentration of the compound with time. The microsomal clearance (mClint) was calculated as follows: mClint=((ln(2)/t 1/2)/Microsomal Protein Concentration (mg/ml))*1000, leading to the unit of μL/min/mg.

The next data set deals with T1, h-5-HT6 receptor (Homo sapiens, UniProt P50406).
T1 construct: expressed in transfected cells
T1 sequence (P50406 whole entry): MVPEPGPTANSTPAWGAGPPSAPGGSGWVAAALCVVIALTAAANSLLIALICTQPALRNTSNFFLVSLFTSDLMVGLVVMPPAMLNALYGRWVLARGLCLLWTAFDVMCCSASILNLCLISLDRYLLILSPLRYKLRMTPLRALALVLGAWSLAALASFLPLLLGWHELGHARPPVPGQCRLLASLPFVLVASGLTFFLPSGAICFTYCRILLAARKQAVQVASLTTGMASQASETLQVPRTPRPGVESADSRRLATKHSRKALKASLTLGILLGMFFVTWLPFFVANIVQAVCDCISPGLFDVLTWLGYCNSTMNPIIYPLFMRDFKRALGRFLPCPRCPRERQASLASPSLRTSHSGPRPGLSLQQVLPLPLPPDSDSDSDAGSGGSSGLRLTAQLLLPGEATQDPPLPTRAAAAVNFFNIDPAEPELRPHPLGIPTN
Nature of the data set: 5-HT6 receptor binding assay (displacement of [3H]-LSD). The settings on record: cloned human 5-HT6 receptor, HEK293 membranes, 1 nM [3H]-LSD. The method, then:
Displacement of radioligands binding to the following cloned human receptors
1. Preparation of Membranes by Ultrasonic Treatment and Differential Centrifugation
Cells from stable clonal cell lines expressing the corresponding receptor (5-HT6, α1-adrenergic, dopamine D2 or histamine H1 receptors) were washed with PBS (w/o Ca^++, Mg^++) and harvested in PBS with 0.02% EDTA. The cells were collected by centrifugation at 500 g for 10 min. at 4° C., washed with PBS and centrifuged (500 g, 10 min. 4° C.). The pellets were stored at −80° C. until use. For membrane preparation, the thawed cell pellet was resuspended in ice-cold sucrose buffer (0.25 M sucrose, 10 mM Hepes (pH 7.4), 1 mM Phenylmethylsulfonyl fluoride (PMSF) in DMSO, 5 μg/ml Pepstatin-A, 3 mM EDTA, 0.025% Bacitracin) and homogenized with a Branson Sonifier W-250 (Settings: Timer 4; Output Control 3; Duty Cycle constant; 2 to 3 cycles). Cell disruption was checked with the aid of a microscope. Remaining unbroken cells were pelleted at 1.000 g for 10 min. at 4° C. The sucrose buffer supernatant was then centrifuged at 60.000 g for 1 h at 4° C. (Beckman Ultrazentrifuge XL 80). The pellet was resuspended in 30 ml ice-cold Tris buffer (20 mM TRIS (pH 7.4), 5 μg/ml Pepstatin A, 0.1 mM PMSF, 3 mM EDTA) by pipetting through a 10 ml serological pipet and centrifuged for 1 h at 4° C. at 60.000 g. A final resuspension was performed in a small volume of ice-cold Tris buffer (see above) by pressing through a serological pipet followed by ultrasonic treatment with a Branson Sonifier W-250 (Settings: Timer 1; Output Control 3; Duty Cycle constant; 1 cycle). Protein concentration was determined (BCA-Kit; Pierce) and aliquots stored at −80° C. or in liquid nitrogen for long-term storage.
2. Receptor Binding Experiments
All receptor binding experiments were carried out in the corresponding assay buffer in a total volume of 200 μl in the presence of various concentrations of test compound (10^−5 M to 10^−9 M, tenfold serial dilution, duplicate determinations). The assays were terminated by filtration on polyethylenimine (PEI 0.1% or 0.3%) presoaked Packard Unifilter Plates (GF/C or GF/B) with a Tomtec MachIII U 96 well-plate harvester. After the plates had been dried for 2 h at 55° C. in a drying chamber scintillation cocktail (BetaPlate Scint; PerkinElmer) was added. Radioactivity was measured in a Microbeta Trilux two hours after the addition of the scintillation mixture. Data derived from liquid scintillation counting were analysed by iterative non-linear regression analysis with the use of the Statistical Analysis System (SAS): a program similar to “LIGAND” as described by Munson and Rodbard (Analytical Biochemistry 107, 220-239 (1980).
a) 5-HT6 Receptor Binding Assay
HEK293 cells stably expressing the h-5-HT6 receptor (NCBI Reference Sequence XM 001435) were cultured in RPMI1640 medium supplemented with 25 mM HEPES, 10% fetal calf serum and 1-2 mM glutamine. The membrane preparation was performed as described in section 1. […] Non-specific binding was defined with 1 μM methiothepin. The binding reaction was carried out for 3.5 h at room temperature. During the incubation, the plates were shaken on a plate shaker at 100 rpm and terminated by filtration on Packard Unifilter GF/C (0.1% PEI) plates, followed by 2 wash cycles with ice-cold 50 mM Tris-HCl, 5 mM CaCl2.
Data derived from liquid scintillation counting were analyzed by iterative non-linear regression analysis with the use of the Statistical Analysis System (SAS): a program similar to “LIGAND” as described by Munson and Rodbard (Anal. Biochem. 1980, 107, 220-239). Fitting was performed according to formulae described by Feldman (Anal. Biochem. 1972, 48, 317-338). IC50, nH and Ki values were expressed as geometrical mean.

For `CC1(O)CCN(c2cccc3cc(S(=O)(=O)c4cccc(C(F)(F)F)c4)cnc23)CC1` [Example 7, 4-Methyl-1-[3-[3-(trifluoromethyl)phenyl]sulfonyl-8-quinolyl]piperidin-4-ol Hydrochloride], in data set [1], the microsomal CLint at 0.5 μM was 60 to 120 µL/min/mg. The same compound had a Ki on h-5-HT6 receptor of less than 10 nM.

For `O=S(=O)(c1cccc(C(F)(F)F)c1)c1cnc2c(N3CC(O)C3)cccc2c1` [Example 8, 1-[3-[3-(Trifluoromethyl)phenyl]sulfonyl-8-quinolyl]azetidin-3-ol], the microsomal CLint at 0.5 μM in data set [1] fell in the range of 30 to 60 µL/min/mg. Also, the Ki on h-5-HT6 receptor was less than 10 nM.

Regarding `O=S(=O)(c1cccc(F)c1)c1cnc2c(N3CCC(O)CC3)cccc2c1` [Example 9, 1-[3-(3-Fluorophenyl)sulfonyl-8-quinolyl]piperidin-4-ol], the microsomal CLint at 0.5 μM in data set [1] was less than 30 µL/min/mg. This compound returned a Ki on h-5-HT6 receptor of less than 10 nM.

Turning to `O=S(=O)(c1cccc(F)c1)c1cnc2c(N3CC(O)C3)cccc2c1` [Example 10, 1-[3-(3-Fluorophenyl)sulfonyl-8-quinolyl]azetidin-3-ol], the microsomal CLint at 0.5 μM in data set [1] fell in the range of 30 to 60 µL/min/mg. At h-5-HT6 receptor, this compound displayed a Ki of less than 10 nM.

As to `O=C(O)[C@@H]1CCN(c2cccc3cc(S(=O)(=O)c4cccc(C(F)(F)F)c4)cnc23)C1` [Example 12, (3R)-1-[3-[3-(Trifluoromethyl)phenyl]sulfonyl-8-quinolyl]pyrrolidine-3-carboxylic Acid], the microsomal CLint at 0.5 μM in data set [1] is less than 30 µL/min/mg. On h-5-HT6 receptor, this compound displayed a Ki of 10 to 100 nM.

Take `COc1cccc(S(=O)(=O)c2cnc3c(N4CCC(O)CC4)cccc3c2)c1` [Example 13, 1-[3-(3-Methoxyphenyl)sulfonyl-8-quinolyl]piperidin-4-ol]: the microsomal CLint at 0.5 μM in data set [1] was 60 to 120 µL/min/mg. Besides, on h-5-HT6 receptor, the Ki was less than 10 nM.

For the compound `COc1cccc(S(=O)(=O)c2cnc3c(N4CCC(C(=O)O)CC4)cccc3c2)c1` [Example 15, 1-[3-(3-Methoxyphenyl)sulfonyl-8-quinolyl]piperidine-4-carboxylic Acid], the microsomal CLint at 0.5 μM in data set [1] was less than 30 µL/min/mg. The compound also gave a Ki at h-5-HT6 receptor of 100 to 500 nM.

With `O=S(=O)(c1cccc(N2CCC(O)CC2)c1)c1cnc2c(N3CCC(O)CC3)cccc2c1` [Example 16, 1-[3-[[8-(4-Hydroxy-1-piperidyl)-3-quinolyl]sulfonyl]phenyl]piperidin-4-ol], in data set [1], the microsomal CLint at 0.5 μM lay within 30 to 60 µL/min/mg. In addition, the Ki on h-5-HT6 receptor is 10 to 100 nM.

For `O=S(=O)(c1ccccc1)c1cnc2c(N3CCC(O)CC3)cccc2c1` [Example 18, 1-[3-(Benzenesulfonyl)-8-quinolyl]piperidin-4-ol], in data set [1], the microsomal CLint at 0.5 μM was less than 30 µL/min/mg. At h-5-HT6 receptor, this compound displayed a Ki of less than 10 nM.

Regarding `O=S(=O)(c1cccc(C(F)(F)F)c1)c1cnc2c(N3CC[C@@H](O)C3)cccc2c1` [Example 19, (3R)-1-[3-[3-(Trifluoromethyl)phenyl]sulfonyl-8-quinolyl]pyrrolidin-3-ol], the microsomal CLint at 0.5 μM in data set [1] fell in the range of 30 to 60 µL/min/mg. The Ki on h-5-HT6 receptor lay in the range of 10 to 100 nM.

With `O=S(=O)(c1cccc(F)c1)c1cnc2c(N3CCC[C@@H](O)C3)cccc2c1` [Example 20, (3R)-1-[3-(3-Fluorophenyl)sulfonyl-8-quinolyl]piperidin-3-ol], the microsomal CLint at 0.5 μM in data set [1] fell in the range of 30 to 60 µL/min/mg. The compound further came in with a Ki on h-5-HT6 receptor of less than 10 nM.

For `COc1ccccc1S(=O)(=O)c1cnc2c(N3CCC(O)CC3)cccc2c1` [Example 21, 1-[3-(2-Methoxyphenyl)sulfonyl-8-quinolyl]piperidin-4-ol], the microsomal CLint at 0.5 μM in data set [1] was in the range of 60 to 120 µL/min/mg. Further, the Ki on h-5-HT6 receptor was in the range of 10 to 100 nM.

Consider `O=S(=O)(c1ccccc1)c1cnc2c(N3CCC[C@H](O)C3)cccc2c1` [Example 22, (3S)-1-[3-(Benzenesulfonyl)-8-quinolyl]piperidin-3-ol], for which the microsomal CLint at 0.5 μM in data set [1] was 30 to 60 µL/min/mg. Also, on h-5-HT6 receptor, the Ki lay within 10 to 100 nM.

Take `O=S(=O)(c1ccccc1)c1cnc2c(N3CCC[C@@H](O)C3)cccc2c1` [Example 23, (3R)-1-[3-(Benzenesulfonyl)-8-quinolyl]piperidin-3-ol]: the microsomal CLint at 0.5 μM in data set [1] is 30 to 60 µL/min/mg. This compound returned a Ki on h-5-HT6 receptor of less than 10 nM.

On to `O=S(=O)(c1cccc(N2CCC(O)CC2)c1)c1cnc2c(F)cccc2c1` [Example 24, 1-[3-[(8-Fluoro-3-quinolyl)sulfonyl]phenyl]piperidin-4-ol], for which, in data set [1], the microsomal CLint at 0.5 μM lay in the range of 60 to 120 µL/min/mg. The compound further displayed a Ki at h-5-HT6 receptor of 10 to 100 nM.

As to `O=S(=O)(c1cccc(F)c1)c1cnc2c(N3CCC[C@H](O)C3)cccc2c1` [Example 27, (3S)-1-[3-(3-Fluorophenyl)sulfonyl-8-quinolyl]piperidin-3-ol], the microsomal CLint at 0.5 μM in data set [1] fell in the range of 30 to 60 µL/min/mg. The compound further came in with a Ki on h-5-HT6 receptor of less than 10 nM.

Take `Cc1ccc(O)c(S(=O)(=O)c2cnc3c(N4CCC(O)CC4)cccc3c2)c1` [Example 28, 1-[3-(2-Hydroxy-5-methyl-phenyl)sulfonyl-8-quinolyl]piperidin-4-ol]: in data set [1], the microsomal CLint at 0.5 μM was 30 to 60 µL/min/mg. The Ki at h-5-HT6 receptor lay in the range of 10 to 100 nM.

For `O=S(=O)(c1cccc(OC(F)F)c1)c1cnc2c(N3CCC(O)CC3)cccc2c1` [Example 29, 1-[3-[3-(Difluoromethoxy)phenyl]sulfonyl-8-quinolyl]piperidin-4-ol], in data set [1], the microsomal CLint at 0.5 μM is less than 30 µL/min/mg. In addition, at h-5-HT6 receptor, the Ki is less than 10 nM.

Regarding `O=S(=O)(c1ccccc1)c1cnc2c(N3CC[C@H](O)C3)cccc2c1` [Example 30, (3S)-1-[3-(Benzenesulfonyl)-8-quinolyl]pyrrolidin-3-ol], the microsomal CLint at 0.5 μM in data set [1] was 60 to 120 µL/min/mg. This compound registered a Ki on h-5-HT6 receptor of less than 10 nM.

As to `O=C(O)C1CCN(c2cccc3cc(S(=O)(=O)c4cccc(OC(F)F)c4)cnc23)CC1` [Example 31, 1-[3-[3-(Difluoromethoxy)phenyl]sulfonyl-8-quinolyl]piperidine-4-carboxylic Acid], the microsomal CLint at 0.5 μM in data set [1] was less than 30 µL/min/mg. On h-5-HT6 receptor, the Ki was 10 to 100 nM.

Consider `O=S(=O)(c1ccccc1)c1cnc2c(N3C[C@H](O)[C@@H](O)C3)cccc2c1` [Example 32, (3S,4S)-1-[3-(Benzenesulfonyl)-8-quinolyl]pyrrolidine-3,4-diol], for which the microsomal CLint at 0.5 μM in data set [1] was in the range of 30 to 60 µL/min/mg. This compound also gave a Ki at h-5-HT6 receptor of less than 10 nM.

On to `O=S(=O)(c1cccc(F)c1)c1cnc2c(N3CC[C@@H](O)C3)cccc2c1` [Example 33, (3R)-1-[3-(3-Fluorophenyl)sulfonyl-8-quinolyl]pyrrolidin-3-ol], for which the microsomal CLint at 0.5 μM in data set [1] was 30 to 60 µL/min/mg. Also, at h-5-HT6 receptor, the Ki is less than 10 nM.

In the case of `O=S(=O)(c1ccccc1)c1cnc2c(N3C[C@H](O)C[C@H](O)C3)cccc2c1` [Example 36, (3R,5S)-1-[3-(Benzenesulfonyl)-8-quinolyl]piperidine-3,5-diol], the microsomal CLint at 0.5 μM in data set [1] is less than 30 µL/min/mg. Besides, the Ki at h-5-HT6 receptor was less than 10 nM.

`O=C(O)C1CCN(c2cccc3cc(S(=O)(=O)c4ccccc4)cnc23)CC1` [Example 37, 1-[3-(Benzenesulfonyl)-8-quinolyl]piperidine-4-carboxylic Acid]: the microsomal CLint at 0.5 μM in data set [1] is less than 30 µL/min/mg. In addition, at h-5-HT6 receptor, the Ki is 10 to 100 nM.
